Data taken from patent publication US11000033B2, “Ketone or oxime compound, and herbicide” (NISSAN CHEMICAL CORPORATION, priority 2014, dated 2021).

What was measured:
Type in all cases: in vivo
[1] = tested on: Apera spica-venti; experiment: Test Example 4: herbicidal effect by soil treatment (symbol L)
In short: (§1)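 Seeds were sown in sterilized diluvial soil, covered with about 1.5 cm of soil, and the soil surface was sprayed with a water-diluted emulsion of the compound at a predetermined rate. Plants grew in a greenhouse at 25° C. to 30° C.; effects were scored visually 3 weeks after application.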

[2] = tested on: rice plant; experiment: Test Example 5: effect on crop by foliage application, plastic box (symbol b); details: 320 g/ha, 3 weeks after application
In short: (§2)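 In a plastic box 7 cm deep filled with sterilized diluvial soil, seeds of crops and weeds such as Digitaria ciliaris, Avena fatua and Amaranthus retroflexus are sown in spots and covered with about 1.5 cm of soil before greenhouse growth at 25–30° C.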

[3] = tested on: Cyperus difformis; experiment: Test Example 3: herbicidal effect by foliage application, Wagner pot (symbol E); details: application herbicide amount 320 g/ha
In short: (§3)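 Steps: fill pot with alluvial soil; add water to 0.1–0.5 cm depth; sow weed and rice seed; grow 14 days at 25–30 °C; spray diluted emulsion over the leaves; rate effect after 3 weeks.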

[4] = tested on: Stellaria media; experiment: Test Example 5: herbicidal effect by foliage application, plastic box (symbol P); details: 320 g/ha, 3 weeks after application
In short: (§4)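 Herbicide, formulated as an emulsion and diluted in water, is sprayed onto the aerial parts of 14-day seedlings. These were grown at 25° C. to 30° C. in sterilized diluvial soil; effects are graded after 3 weeks.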

[5] = tested on: Setaria viridis; experiment: Test Example 5: herbicidal effect by foliage application, plastic box (symbol G); details: 320 g/ha, 3 weeks after application
In short: as §4

[6] = tested on: Echinochloa crus-galli var. crus-galli; experiment: Test Example 3: herbicidal effect by foliage application, Wagner pot (symbol H); details: application herbicide amount 320 g/ha
In short: as §3

[7] = tested on: soybean; experiment: Test Example 5: effect on crop by foliage application, plastic box (symbol d); details: 320 g/ha, 3 weeks after application
In short: as §2

[8] = tested on: Amaranthus retroflexus; experiment: Test Example 4: herbicidal effect by soil treatment (symbol N)
In short: as §1

[9] = tested on: beet; experiment: Test Example 5: effect on crop by foliage application, plastic box (symbol f); details: 320 g/ha, 3 weeks after application
In short: as §2

[10] = tested on: Apera spica-venti; experiment: Test Example 5: herbicidal effect by foliage application, plastic box (symbol L); details: 320 g/ha, 3 weeks after application
In short: as §4

[11] = tested on: Echinochloa crus-galli var. crus-galli; experiment: Test Example 4: herbicidal effect by soil treatment (symbol H)
In short: as §1

[12] = tested on: Echinochloa oryzacola Vasing.; experiment: Test Example 1: herbicidal activity, application before weed generation in submerged conditions (symbol A); details: application herbicide amount 320 g/ha
In short: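 Application before weed emergence: an aqueous dilution of the emulsion formulation was poured onto the surface of 4 cm-deep floodwater on the day of sowing. Effect was judged after 3 weeks (greenhouse, 25–30 °C).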

[13] = tested on: Echinochloa oryzacola Vasing.; experiment: Test Example 2: herbicidal activity, application during weed generation in submerged conditions (symbol A); details: Table 23; application herbicide amount 320 g/ha; grade 0-5 by criteria of Test Example 1
In short: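 Submerged alluvial soil (4 cm) sown with mixed seed; greenhouse 25–30° C. 1–2 leaf: diluted emulsion onto water surface, preset dose. Visual score, 3 wk.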

[14] = application herbicide amount 320 g/ha

## CCCC=CC(=O)OC1=C(c2c(C)cc(C)cc2C)C(=O)C(CC(C)=NOC)C1 (centres unmarked) [1-090]
[1]; 320 g/ha
  L: Apera spica-venti, herbicidal effect grade: 5 (Herbicidal ratio of 90% or more (almost completely withered))
[2]
  b: directly sowed rice plant, effect on crop (criteria 0-5): 5 (Herbicidal ratio of 90% or more (almost completely withered))
[3]
  herbicidal effect on E, grade 0-5: 5 (Herbicidal ratio of 90% or more (almost completely withered))
[4]
  P: Stellaria media, herbicidal effect (criteria 0-5): 3 (Herbicidal ratio of 40% or higher and lower than 70%)
[5]
  G: Setaria viridis, herbicidal effect (criteria 0-5): 5 (Herbicidal ratio of 90% or more (almost completely withered))
[6]
  herbicidal effect on H (Echinochloa crus-galli var. crus-galli), grade 0-5: 5 (Herbicidal ratio of 90% or more (almost completely withered))
[7]
  d: soybean, effect on crop (criteria 0-5): 3 (Herbicidal ratio of 40% or higher and lower than 70%)
[8]; 320 g/ha
  N: Amaranthus retroflexus, herbicidal effect grade: 0 (Herbicidal ratio of 5% or lower (almost no effect))
[9]
  f: beet, effect on crop (criteria 0-5): 0 (Herbicidal ratio of 5% or lower (almost no effect))
[10]
  L: Apera spica-venti, herbicidal effect (criteria 0-5): 5 (Herbicidal ratio of 90% or more (almost completely withered))
[11]; 320 g/ha
  H: Echinochloa crus-galli var. crus-galli, herbicidal effect grade: 5 (Herbicidal ratio of 90% or more (almost completely withered))
[12]
  Herbicidal effect grade, A: Echinochloa oryzacola Vasing.: 5 (Herbicidal ratio of 90% or more (almost completely withered))
[13]
  Herbicidal effect grade, A: Echinochloa oryzacola Vasing.: 5 (Herbicidal ratio of 90% or more (almost completely withered))

## CON=C(C)CC1CC(O)=C(c2c(C)cc(C)cc2C)C1=O (centres unmarked) [1-002, 3-hydroxy-2-mesityl-5-{2-(methoxyimino)propyl}cyclopent-2-enone]
[1]; [14]
  L (Apera spica-venti) herbicidal effect grade: 5 (Herbicidal ratio of 90% or more (almost completely withered))
[2]
  b: directly sowed rice plant, effect on crop grade: 5 (Herbicidal ratio of 90% or more (almost completely withered))
[3]
  herbicidal effect on E, grade 0-5: 5 (Herbicidal ratio of 90% or more (almost completely withered))
[4]
  P: Stellaria media, herbicidal effect grade: 4 (Herbicidal ratio of 70% or higher and lower than 90%)
[5]
  G: Setaria viridis, herbicidal effect grade: 5 (Herbicidal ratio of 90% or more (almost completely withered))
[6]
  herbicidal effect on H (Echinochloa crus-galli var. crus-galli), grade 0-5: 5 (Herbicidal ratio of 90% or more (almost completely withered))
[7]
  d: soybean, effect on crop grade: 4 (Herbicidal ratio of 70% or higher and lower than 90%)
[8]; [14]
  N (Amaranthus retroflexus) herbicidal effect grade: 5 (Herbicidal ratio of 90% or more (almost completely withered))
[9]
  f: beet, effect on crop grade: 5 (Herbicidal ratio of 90% or more (almost completely withered))
[10]
  L: Apera spica-venti, herbicidal effect grade: 5 (Herbicidal ratio of 90% or more (almost completely withered))
[11]; [14]
  H (Echinochloa crus-galli var. crus-galli) herbicidal effect grade: 5 (Herbicidal ratio of 90% or more (almost completely withered))
[12]
  Herbicidal effect grade, A: Echinochloa oryzacola Vasing.: 5 (Herbicidal ratio of 90% or more (almost completely withered))
[13]
  Herbicidal effect grade, A: Echinochloa oryzacola Vasing.: 5 (Herbicidal ratio of 90% or more (almost completely withered))
